Our source for the IC50, fold change (FC) and inhibition values is ChEMBL document CHEMBL4371054, “Dual inhibition of Kif15 by oxindole and quinazolinedione chemical probes” (Bioorg Med Chem Lett, 2019).

Assay [1] concerns the target T1, Kinesin-like protein KIF15 (Homo sapiens, UniProt Q9NS87).
T1 sequence (Q9NS87 whole entry): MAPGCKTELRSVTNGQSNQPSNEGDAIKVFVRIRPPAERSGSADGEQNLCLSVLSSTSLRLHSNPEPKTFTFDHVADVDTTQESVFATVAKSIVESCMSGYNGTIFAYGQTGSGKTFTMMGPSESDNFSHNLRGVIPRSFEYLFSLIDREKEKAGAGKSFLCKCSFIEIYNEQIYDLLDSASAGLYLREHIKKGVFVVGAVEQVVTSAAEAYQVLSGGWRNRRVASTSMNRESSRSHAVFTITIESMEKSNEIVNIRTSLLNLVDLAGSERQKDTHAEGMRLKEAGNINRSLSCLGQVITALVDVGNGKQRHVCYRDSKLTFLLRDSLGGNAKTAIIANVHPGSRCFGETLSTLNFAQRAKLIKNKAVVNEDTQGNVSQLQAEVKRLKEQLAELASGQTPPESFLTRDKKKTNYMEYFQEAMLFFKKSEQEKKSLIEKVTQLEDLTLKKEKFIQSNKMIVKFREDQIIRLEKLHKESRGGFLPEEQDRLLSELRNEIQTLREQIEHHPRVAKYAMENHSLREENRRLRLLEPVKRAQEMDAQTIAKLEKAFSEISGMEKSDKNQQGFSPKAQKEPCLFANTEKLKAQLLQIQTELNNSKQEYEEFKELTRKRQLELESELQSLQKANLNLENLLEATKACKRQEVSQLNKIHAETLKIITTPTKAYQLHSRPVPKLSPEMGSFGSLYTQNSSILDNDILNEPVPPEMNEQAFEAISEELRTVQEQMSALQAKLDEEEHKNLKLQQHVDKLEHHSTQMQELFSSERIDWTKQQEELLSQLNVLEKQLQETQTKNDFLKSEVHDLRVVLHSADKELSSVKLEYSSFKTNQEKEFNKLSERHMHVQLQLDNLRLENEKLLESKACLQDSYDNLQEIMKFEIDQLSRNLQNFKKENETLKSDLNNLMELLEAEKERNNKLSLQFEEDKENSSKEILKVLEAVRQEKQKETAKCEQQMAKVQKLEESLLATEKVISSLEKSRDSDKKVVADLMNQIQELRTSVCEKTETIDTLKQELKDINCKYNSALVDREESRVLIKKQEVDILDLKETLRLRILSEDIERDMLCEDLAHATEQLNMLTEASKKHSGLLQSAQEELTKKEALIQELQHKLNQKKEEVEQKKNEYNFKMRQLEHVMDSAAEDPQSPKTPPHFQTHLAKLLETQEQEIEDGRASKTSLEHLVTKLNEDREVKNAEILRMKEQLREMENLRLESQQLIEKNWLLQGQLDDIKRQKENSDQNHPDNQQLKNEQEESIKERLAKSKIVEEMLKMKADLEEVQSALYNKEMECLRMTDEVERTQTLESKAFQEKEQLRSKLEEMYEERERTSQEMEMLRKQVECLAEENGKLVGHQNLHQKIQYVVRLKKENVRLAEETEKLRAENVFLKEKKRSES
The assay is described as follows: Inhibition of recombinant His6-tagged Kif15 (N700 residues) (unknown origin) expressed in HeLa cells assessed as reduction in Alexa-594 labelled microtubule gliding measured every 2 secs for 20 secs by epifluorescence microscopic analysis. It counts as cell-based.

Assay [2] deals with T1, Kinesin-like protein KIF15. Nature of the assay: Inhibition of recombinant His6-tagged Kif15 ATPase activity (N420 residues) (unknown origin) expressed in HeLa cells using microtubule as substrate preincubated for 15 mins followed by ATP addition and measured after 20 mins by ADP-Glo luminescence assay. On the technique in general: In ADP-Glo the light output rises with the ADP produced.

Assay [3] addresses T2, Kinesin-like protein KIF15 (Homo sapiens) (UniProt Q9NS87).
T2 sequence (whole entry): T1 sequence (Q9NS87 whole entry)
The assay is described as follows: Inhibition of Kif15 in TP53-deficient human RPE1 cells assessed as reduction in spindle-bound Kif15 level at 25 uM after 24 hrs by Hoechst 33342 staining based immunofluorescence microscopic analysis relative to control.

The target of assay [4] is T3, Kinesin-like protein KIF18A (Homo sapiens) (UniProt Q8NI77).
T3 sequence (whole entry): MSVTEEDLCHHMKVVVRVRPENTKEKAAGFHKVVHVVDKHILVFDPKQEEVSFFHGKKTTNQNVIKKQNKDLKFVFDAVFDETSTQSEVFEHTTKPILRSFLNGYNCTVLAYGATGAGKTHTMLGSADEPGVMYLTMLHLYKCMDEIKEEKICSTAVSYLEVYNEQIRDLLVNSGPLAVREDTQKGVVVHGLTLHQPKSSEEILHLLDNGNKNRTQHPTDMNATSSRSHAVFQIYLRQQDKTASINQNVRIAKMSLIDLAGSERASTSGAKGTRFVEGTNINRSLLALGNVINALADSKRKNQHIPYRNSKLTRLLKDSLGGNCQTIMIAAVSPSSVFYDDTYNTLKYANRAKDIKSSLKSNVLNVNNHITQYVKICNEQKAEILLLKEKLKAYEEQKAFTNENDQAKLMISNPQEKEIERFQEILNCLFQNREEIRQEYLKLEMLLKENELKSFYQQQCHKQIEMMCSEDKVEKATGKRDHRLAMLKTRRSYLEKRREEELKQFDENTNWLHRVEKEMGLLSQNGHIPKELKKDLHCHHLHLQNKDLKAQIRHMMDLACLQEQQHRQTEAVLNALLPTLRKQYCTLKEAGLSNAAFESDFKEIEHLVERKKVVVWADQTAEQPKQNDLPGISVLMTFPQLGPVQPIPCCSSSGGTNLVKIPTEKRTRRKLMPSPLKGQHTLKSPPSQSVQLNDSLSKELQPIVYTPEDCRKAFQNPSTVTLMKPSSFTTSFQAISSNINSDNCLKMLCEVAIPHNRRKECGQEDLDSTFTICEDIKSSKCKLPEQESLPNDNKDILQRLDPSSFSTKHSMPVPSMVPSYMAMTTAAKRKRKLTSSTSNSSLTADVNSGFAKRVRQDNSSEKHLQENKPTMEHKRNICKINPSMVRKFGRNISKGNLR
Nature of the assay: Inhibition of Kif18A (unknown origin) assessed as reduction in Alexa-594 labelled microtubule gliding at 30 uM measured every 2 secs for 20 secs by epifluorescence microscopic analysis relative to control.

The target in assay [5] is T2, Kinesin-like protein KIF15 (Homo sapiens). Nature of the assay: Inhibition of recombinant His6-tagged Kif15 (N700 residues) (unknown origin) expressed in HeLa cells assessed as reduction in Alexa-594 labelled microtubule gliding at 30 uM measured every 2 secs for 20 secs by epifluorescence microscopic analysis relative to control. Format: cell-based.

The structures appear in SMILES notation.

As a reminder, the IC50 is the point on the concentration scale where inhibition reaches its midpoint. As usually defined, the inhibition is the drop in the measured response relative to a control, in per cent. Turning to `O=C1Nc2ccc(C(=O)c3ccco3)cc2/C1=C/c1cc(Cl)c(O)c(Cl)c1`, the IC50 was determined as 750 nM in assay [1] and 820 nM in assay [2]. Further, the fold change (FC) in assay [3] came to 3. For the same compound, the inhibition turned out to be 4.9% in assay [4] and 98.9% in assay [5].
